Results from PubChem BioAssay AID179 (DTP/NCI, 2004).
Calls of active or inactive are those of the source.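 How the source made its calls: active means compounds giving half or more protection of infected cells from virus-caused growth loss, again on retest; inactive means the rest.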

System: CEM cells HIV-1 protection, formazan growth assay
Experiment: NCI AIDS Antiviral Assay
Conditions: for IC50: measured here: growth of uninfected CEM cells
Summary of the method: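 Protection of CEM cells against HIV-1 measured as cell growth via soluble formazan read-out, with five concentrations tested on both infected and uninfected cells; failure to protect may reflect toxicity.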

N#Cc1c(C(N)=O)ncn1Cc1ccccc1
outcome: inactive

CCOC(=O)C(=O)/C(=C/n1c(=S)[nH]c2ccc([N+](=O)[O-])cc21)C(=O)OCC
EC50: > 200 µM
IC50: 77.6 µM

Cc1c(NC(=O)OCc2ccccc2)no[n+]1[O-]
EC50: > 550 µM
IC50: 129 µM

COC(=O)c1c[nH]c2c1-c1cc(C(=O)OCc3ccccc3)n(S(=O)(=O)c3ccc(C)cc3)c1C(=O)C2=O
EC50: > 200 µM
IC50: 3.72 µM

N#Cc1cccc(/C=C2\Cc3ccccc3C2=O)c1
EC50: > 5.89 µM
IC50: > 5.89 µM

CC[C@]1(Cc2ccc(OC)c(OC)c2)C=[N+]([O-])O[C@H](OC2CCCC2(c2ccccc2)c2ccccc2)[C@@H]1OC(C)=O (stereo partly drawn)
EC50: > 200 µM
IC50: 3.8 µM

CC(=O)OC1C(CN2CCOC2=O)OC(n2cc(C)c(=O)[nH]c2=O)C1OC(C)=O (stereo not drawn)
EC50: > 200 µM
IC50: > 200 µM

Cc1ccc(/C=C(\C#N)c2ccccc2)cc1
EC50: > 229 µM
IC50: > 229 µM

Cc1ccc(S(=O)(=O)N/N=C2/CC3CCC4CC2CC34)cc1 (stereo not drawn)
EC50: > 200 µM
IC50: 79.4 µM

Cn1nc(-c2ccccc2)c(C(=O)/C=C/c2ccccc2)c(N2CCOCC2)c1=O
EC50: > 79.4 µM
IC50: > 79.4 µM

O=C(O)C1(Cl)C2(Cl)C(Cl)=CC3(Cl)C(Cl)(C(=O)O)C2(Cl)C31Cl (stereo not drawn)
EC50: > 200 µM
IC50: > 200 µM

Cc1cc(Cc2c(F)c(F)c(Cc3cc(C)no3)c(F)c2F)on1
EC50: > 100 µM
IC50: > 100 µM

CC1OC(OC2C(CO)OC(O[C@H]3CC[C@@]4(C)C(=CC[C@H]5[C@@H]6C[C@@H]7O[C@](O)(CC[C@H](CO)COC8OC(CO)C(O)C(O)C8O)[C@@H](C)[C@@H]7[C@@]6(C)CC[C@@H]54)C3)C(OC3OC(C)C(O)C(O)C3O)C2O)C(O)C(O)C1O (stereo partly drawn)
EC50: > 200 µM
IC50: > 200 µM

CC1=C(C#N)C(=N)OC1(C)C1CC(=O)C=CC1=O (stereo not drawn)
EC50: > 200 µM
IC50: 10.5 µM

CC(=O)n1c(COc2ccc3c(C)cc(=O)oc3c2)nc2ccccc2c1=O
EC50: > 91.2 µM
IC50: > 91.2 µM

COc1cc2nc3c(nc2cc1OC)-c1ccccc1C3=O
EC50: 3.02 µM
IC50: 9.33 µM

NC(N)=N/N=C/C(Cl)(Cl)Cl
EC50: > 200 µM
IC50: > 200 µM

O=C(NC(=Nc1ccccc1)SCCSC(=Nc1ccccc1)NC(=O)c1cccs1)c1cccs1
EC50: > 3.63 µM
IC50: > 3.63 µM

CC(C)(C)c1cc(CCC(=O)Nc2ccccc2[N+](=O)[O-])cc(NC#N)n1
outcome: inactive

[O-][n+]1c2ccccc2cc2c1c1ccccc1n2O
EC50: > 20.9 µM
IC50: > 20.9 µM

O=C1CCC(c2ccccc2)(C2CCN(Cc3ccc(F)cc3)CC2)C(=O)N1 (stereo not drawn)
EC50: > 200 µM
IC50: 123 µM

N#Cc1ccccc1OCCOc1ccccc1C#N
EC50: > 200 µM
IC50: > 200 µM

CN(C)c1ccc(/C=C(\C#N)c2ccc(F)cc2F)cc1
EC50: > 200 µM
IC50: 1.2 µM

COC(=O)[C@@H]1c2[nH]c3ccccc3c2C[C@@H]2c3ccccc3NC(=O)[C@@H]21
EC50: > 42.7 µM
IC50: > 42.7 µM

CCSCCCCCCCCCCCC(=O)OCC1OC(n2cc(C)c(=O)[nH]c2=O)CC1F (stereo not drawn)
EC50: 0.0158 µM
IC50: 2 µM

CCOC(=O)/C(=C\c1ccc(C#N)cc1)C(C)=O
EC50: > 148 µM
IC50: 77.6 µM

c1ccc(C2=NN(c3ccccc3)C3(S2)SC(c2ccccc2)(c2ccccc2)c2ccccc23)cc1 (stereo not drawn)
EC50: > 50.1 µM
IC50: > 50.1 µM

CCC(=N\NC(N)=S)/C(C)=N/O
EC50: > 200 µM
IC50: > 200 µM

COc1ccc(OC)c2c3c(ccc12)C1(CCc2c(C)cccc21)OC3=O (stereo not drawn)
EC50: > 55 µM
IC50: 8.13 µM

Cc1cn(C2CC(ONC(N)=O)C(CO[Si](C)(C)C(C)(C)C)O2)c(=O)[nH]c1=O (stereo not drawn)
EC50: > 200 µM
IC50: 105 µM
